Experimental data taken from US6498254B1, “Antiretroviral compounds and compositions” (Uniroyal Chemical Company, Inc., priority 2001, dated 2002).
In brackets after ≈: the same amount, converted by molar mass. Where two headings read alike, the source gives them in different places.

What was measured:
CMV Davis strain = experiment: Activity against HCMV: virus-induced cytopathicity in HEL cells; type: cell-based, human cytomegalovirus (HCMV); conditions: for IC50: read-out: Antiviral IC50 (μg/ml) Davis strain
Experimental: Confluent HEL cells grown in […] microtiter plates were inoculated with CMV at an input of 100 PFU (plaque forming units) per well. After a one to two hour incubation period, residual virus was removed and the infected cells were further incubated with MEM (Minimal Essential Medium) (supplemented with 2% inactivated Fetal Calf Serum (FCS), […], and 0.3% sodium bicarbonate) containing varying concentrations of the test compounds. Antiviral activity was expressed as EC50 (50% effective concentration), or test compound concentration required to reduce virus-induced cytopathicity after seven days by 50% compared to the untreated control.
In some cases, the compounds had considerable cytotoxicity against HEL cells, which made determination of the EC50's difficult. In these cases, an estimate of the percent protection at the compound concentration indicated in the previous columns is given.

HIV-1 (IIIB) = experiment: Inhibition of HIV-1 syncytium formation in CEM cells; type: cell-based; conditions: for EC50: read-out: EC50 (μg/ml) HIV-1
Excerpt: (§1) The cell type used to determine activity of the compounds of the invention herein, i.e., the test compounds, against HIV was human T-lymphoblast (CEM) cells obtained from the American Tissue Cell Culture Collection (Rockville, Md.). HIV-1 (IIIB) was originally obtained from the culture of persistently HIV-1 infected H9 cells and was provided by R. C. Gallo and M. Popovic (National Cancer Institute, National Institutes of Health, Bethesda, Md.). HIV-2 (ROD) was originally obtained from L. M. Montagnier (Pasteur Institute, Paris, France).
(§2) To determine the antiviral activity of the test compounds, CEM cells were suspended at a cell density of approximately 300,000 cells per ml of culture medium and infected with approximately 100 CClD50 (100 CClD50 being the 50% cell culture infective dose) of HIV-1 (IIIB) or HIV-2 (ROD)). Then 100 μl of the infected cell suspensions was added to 200 μl micro titer plate wells containing 100 μl of appropriate serial (5-fold) dilutions of the test compounds. The inhibitory effect of the test compounds on HIV-1 or HIV-2 syncytium formation in CEM cells was examined microscopically on day four post infection. The 50% effective concentration (EC50) was defined as the test compound concentration that inhibits syncytium formation in the HIV-1 or HIV-2 infected cell cultures by 50%.
(§3) In some cases, the compounds had considerable cytotoxicity to CEM cells which made determination of the EC50 difficult. In these cases, the percent protection of the cells against virus-induced cytopathicity by the test compounds at the indicated compound concentration in the previous column is given.

HIV-2 (ROD) = experiment: Inhibition of HIV-2 syncytium formation in CEM cells; type: cell-based; conditions: for EC50: Human immunodeficiency virus 2, CCRF-CEM, read-out: EC50 (μg/ml) HIV-2; for HIV-2 % Protection: protection of CEM cells against virus-induced cytopathicity at the compound concentration in the previous column
Excerpt: as §1, §2, §3

[1] = Human betaherpesvirus 5, 168 h, CMV-infected HEL cells, virus-induced cytopathicity after seven days
[2] = Human immunodeficiency virus 1, CCRF-CEM, HIV-1 (IIIB) infected CEM cells, syncytium formation, day four post infection
[3] = HIV-2 (ROD) infected CEM cells, syncytium formation, day four post infection
[4] = Human betaherpesvirus 5, HEL, 168 h
[5] = Human immunodeficiency virus 1, IIIB, CCRF-CEM

| SMILES | IC50 (CMV Davis strain; [1]) | melting point | EC50 (HIV-1 (IIIB); [2]) | EC50 (HIV-2 (ROD); [3]) | Antiviral % Inhibition Davis strain (CMV Davis strain; estimate of percent protection of HEL cells at the compound concentration) | IC50 (CMV Davis strain; [4]) | EC50 (HIV-1 (IIIB); [5]) | EC50 (HIV-2 (ROD)) | HIV-2 % Protection (HIV-2 (ROD)) | HIV-1 % Protection (HIV-1 (IIIB); protection of CEM cells against virus-induced cytopathicity at the compound concentration in the previous column) |
| --- | --- | --- | --- | --- | --- | --- | --- | --- | --- | --- |
| O=[N+]([O-])c1cc(CS(=O)(=O)c2cccc[n+]2[O-])ccc1Cl [Compound 64, 2-[[(3-nitro-4-chlorophenyl)methyl]sulfonyl]pyridine-N-oxide] | > 5 µg/mL | 168 to 170 °C | 1.5 µg/mL (≈ 4.56 µM) | 1.9 µg/mL (≈ 5.78 µM) | 10.0% |  |  |  |  |  |
| [O-][n+]1c(Cl)cccc1SCc1ccccc1 [Compound 149, 6-chloro-(2-benzylthio)pyridine-N-oxide] |  | 112 to 115 °C |  |  |  | 20 µg/mL (≈ 79.4 µM) | 9 µg/mL (≈ 35.8 µM) | 16 µg/mL (≈ 63.6 µM) |  |  |
| Cc1ccc(C)c(C(C)Sc2cc(C)c3ccccc3n2)c1 (stereo not drawn) [Compound 162, 2-[[1-(2,5-dimethylphenyl)ethyl]thio]-4-methylquinoline] |  | 84 to 85 °C |  |  |  | 1.6 µg/mL (≈ 5.2 µM) | > 0.8 µg/mL | > 0.16 µg/mL | 0.0% | 0.0% |

Second part, led by results:

| IC50 (CMV Davis strain; [1]) | melting point | EC50 (HIV-1 (IIIB); [2]) | EC50 (HIV-2 (ROD); [3]) | SMILES | Antiviral % Inhibition Davis strain (CMV Davis strain; estimate of percent protection of HEL cells at the compound concentration) | IC50 (CMV Davis strain; [4]) | EC50 (HIV-1 (IIIB); [5]) | EC50 (HIV-2 (ROD)) | HIV-2 % Protection (HIV-2 (ROD)) | HIV-1 % Protection (HIV-1 (IIIB); protection of CEM cells against virus-induced cytopathicity at the compound concentration in the previous column) |
| --- | --- | --- | --- | --- | --- | --- | --- | --- | --- | --- |
| > 9.1 µg/mL | 197 to 200 °C | 0.9 µg/mL (≈ 2.76 µM) | 2.4 µg/mL (≈ 7.37 µM) | Cc1ccc(C)c(C(C)S(=O)(=O)c2cccc(Cl)[n+]2[O-])c1 (stereo not drawn) [Compound 76, 2-[1-(2,5-dimethylphenyl)ethylsulfonyl]-6-chloropyridine-N-oxide] |  |  |  |  |  |  |
| 20 µg/mL (≈ 67.6 µM) | 117 to 119 °C | 0.9 µg/mL (≈ 3.04 µM) | > 4 µg/mL | Cc1ccc(C)c(C(Cl)S(=O)(=O)c2ccccn2)c1 (stereo not drawn) [Compound 106, 2[(2,5-dimethylphenyl)chloromethylsulfonyl]pyridine] |  |  |  |  | 0.0% |  |
